Laboratory results reported in patent US9504248B2, “Antimicrobial composition” (Rohm and Haas Company, priority 2011, dated 2016).
Values after ≈ are worked out from the molar mass of the structure shown. Read-outs that look alike come from different tables or passages of the source.

How the values were obtained:
[1] = test system: Escherichia coli (10536 strain); test: 15 second contact suspension kill assay (Example 1 protocol, also Example 3); format: cell-based; details: for NMBS, mean bacterial survival / bacterial kill (in words): 15 s contact; for NMBS, mean bacterial survival: active concentrations (% w/v) as defined per example, 0 = complete kill, mean of triplicate; for MBC: Escherichia coli, 15 s, read-out: Minimum biocidal concentration (MBC)
Excerpt: The efficacies of antimicrobial agents can be usefully compared by determining the Minimum Biocidal Concentration (MBC). The MBC is defined as the lowest absolute concentration of the particular active that provides complete kill (zero bacterial growth). The differing behaviours of inhibitory antimicrobtals in Isolation and mixtures have been widely explored using the concept of the Fractional Concentration and Fractional Inhibitory Concentration (FIC). See for instance J R W Lambert and R Lambert, J. Appl. Microblol 95, 734 (2003); T. Jadavji. C G Prober and R Cheung. Antimicrobial Agents and Chemotherapy 26, 91 (1984), and WO 2004/006876. These parameters can be defined as follows:
[formula] [formula] By analogy the Fractional Biocidal Concentration (FBC) is given by:
Antimicrobial efficacy is tested against a representative pathogenic bacterial organism, Gram negative Escherichia coli. Concentrations of actives are expressed in terms of the percentage weight/volume (% w/v) throughout Example 1.
An overnight culture of Escherichia coli (10536 strain) was prepared in 50 ml total volume of TSB broth, grown for ca. 18 hrs at 37° C. and shaken at 150 rpm. 1 ml of this overnight E. coli culture was transferred to 50 ml of fresh TSB broth and incubated at 37° C. at 150 rpm for ca. 4 hours. This culture was separated into equal volumes and centrifuged at 4000 rpm for 15 minutes, washed with sterile saline (0.85% NaCl), centrifuged once more and re-suspended in saline to give a final concentration of 0.8 OD620 equivalent to about 10^8 cells per milliliter for this particular organism. Here, OD620 indicates the absorbance of a sample in a cuvette of 1.0 cm path length at a wavelength of 620 nm. This bacterial stock was used for assaying against antimicrobial actives (in triplicate).
The following assay describes the testing of 8 materials using 6 dilutions across half of a 96-well micro titre plate (MTP). Using this approach it is possible to assay 16 actives (without replicates) with one full dilution plate, replicating this set up in two halves of the plate columns, 1-6 and 7-12.
1M solutions of the test actives were prepared in dimethylsulphoxide (DMSO).
Aliquots (270 μl) of the materials at 1.11 times the final concentration were dispensed into the wells of the MTP along one column (A1-H1). This MTP was labelled as the “Screening plate”.
In another MTP, labelled as the “Dilution plate”, 270 μl of D/E neutralising solution from DIFCO Composition was added to column 1. The composition of the neutralising solution was as follows: pancreatic digest of casein, 5.0 g/L; Yeast Extract, 2.5 g/L; Dextrose, 10 g/L, sodium thioglycollate, 1.0 g/L, sodium thiosulphate, 6.0 g/L; sodium bisulphite, 2.5 g/L; Polysorbate 80, 5.0 g/L; lecithin 7.0 g/L; bromocresol purple, 0.02 g/L with a pH in the range 7.6±0.2.
270 μl of tryptone diluent solution was added to all the remaining wells of the Dilution MTP (columns 2-6).
Bacterial stock (30 μl) was then added to the prepared 270 μl of the solution of actives in the Screening Plate and mixed, using a multichannel pipette with 8 tips to aspirate and dispense the same volume of bacterial stock in parallel to 8 wells in rows A-H. After a contact time of 15 seconds, the mixtures were quenched by transferring 30 μl volumes of the mixtures into the 270 μl D/E neutralising solution in the prepared dilution plate, using aspiration to mix. After exactly 5 minutes in the DIE neutralising solution, 30 μl volumes were transferred from column 1 to column 2 of the Dilution MTP and mixed, before transferring further 30 μl volumes from column 2 into column 3. This process was repeated serially diluting the bacteria across the plate to column 6.
30 μl volumes from each well in the Dilution MTP were transferred onto pre-labelled segment of Tryptone Soya Agar (TSA) plates starting from the lowest bacterial concentration (highest dilution, column 6) to the highest bacterial concentration (column 1).

[2] = test system: Escherichia coli (E. coli - ATCC #10536); test: Automated assessment of efficacy in surfactant base, 15 seconds exposure, OD450/OD590 readout (Example 4); format: cell-based; details: cocoyl glycinate and lauroamphoacetate
Protocol: In these examples, the efficacy of combinations of monosubstituted phenols and terpineol were tested in a surfactant cleansing formulation comprising 2.85% sodium cocoyl glycinate and 1.85% sodium lauroamphoacetate. This corresponds to a 50% in use dilution with water of a typical neat formulation containing 5.7% cocoyl glycinate and 3.7% % sodium lauroamphoacetate during hand washing. Solutions were prepared such that the concentrations of the surfactant components and test actives were 1.1 times the final desired concentration in order to allow for dilution with the bacterial inoculum in the test. The solutions were manually adjusted to pH 10.0 by dropwise addition of sodium hydroxide solution, as measured with a pH meter at ambient temperature. Solutions of the monosubstituted phenols and/or terpineols were prepared at a maximum of 24 hours before testing. The same terpineol was used as in Example 1.
The efficacy of the combinations of the present invention was determined against the same bacterium as in Example 1, Escherichia coli (E. coli—ATCC #10536), at a concentration of approximately 1×10^8 bacteria per mL.
Tests were conducted using standard microtiter plate assays using an automated liquid handling system. 270 μl of the surfactant test solution was pipetted into each well of the microtitre plate (Nunc F Gamma Irradiated 96F untreated microtitre plates of clear polystyrene) and 30 μl of the bacterial suspension was then added. After exactly 15 seconds of bacterial exposure, a 30 μl volume of bacterial cells was withdrawn and transferred to 270 μl of D/E quench solution. After 5 minutes in the D/E quench, the optical density (OD) was measured for each plate in turn at two specific wavelengths (450 nm and 590 nm). These provide a dual check of antimicrobial activity, as the OD450 reading is specific for the yellow colour of D/E quench when bacterial growth is observed, whereas OD590 is specific for the initial purple colour of the D/E quench which is retained if no bacterial growth is observed. After the time zero OD measurements, plates were then incubated at 37° C. overnight (16 hours) before repeating the OD measurements. Delta OD values were calculated by subtracting […] at time=16 hours. Bacterial growth is observed as an increase in OD450 and a decrease in OD590. To identify antibacterially efficacious systems (those preventing appreciable bacterial growth after incubation), the following threshold changes in OD readings have been adopted: if (1). OD450 increases by less than 0.2 absorbance unit (AU) on incubation and (2). OD590 decreases by less than 0.35 AU on incubation. Conversely, where OD450 increases by more than […] after incubation, corresponding to a colour shift from purple to yellow, the test system allows bacterial growth and is not deemed efficacious. Four replicate measurements in the same plate have been made for each test system. The number of replicate wells showing either bacterial growth or no growth is also readily assessed by eye by following the colour change. Thymol and terpineol were tested both alone and in combination for comparison purposes.
In some selected cases, the combinations were also tested at the weight ratio 1:1.
The surfactants used are not themselves antimicrobially active against E. coli at the concentrations employed as shown by the results of Ex. (4:1) in Table 24. Thus, any antimicrobial efficacy can be ascribed to the monosubstituted phenols and/or terpineol. Table 25 presents MBC-values determined similarly as described for Example 1.

[3] = component alone, lowest tested concentration giving zero bacterial survival after 15 s, upper boundary

Compound | NMBS, mean bacterial survival [1] [log CFU/ml] | other results
Oc1cccc(-c2ccccc2)c1 [3:2, 3-phenylphenol] | 7.4 | 
Oc1cccc(-c2ccccc2)c1 [3:1, 3-phenylphenol] | 4.3 | 
Oc1ccccc1Cc1ccccc1 [1:41, 2-benzylphenol] | 0 | 
Oc1ccccc1C1CCCC1 [1:32, 2-cyclopentylphenol] | 3.4 | 
CC1=CCC(C(C)(C)O)CC1 (stereo not drawn) [1:4, alpha-terpineol] | 0 | 
CCC(C)c1ccccc1O (stereo not shown) [1:24, 2-sec-butylphenol] | 0 | 
CC1=CCC(C(C)(C)O)CC1 (stereo not drawn) [1:6, alpha-terpineol] | 7 | 
Oc1ccccc1C1CCCC1 [1:31, 2-cyclopentylphenol] | 0 | 
CCC(C)c1ccccc1O (stereo not shown) [1:25, 2-sec-butylphenol] | 7.5 | 
Oc1ccccc1C1CCCC1 [1:33, 2-cyclopentylphenol] | 7.5 | 
Oc1ccc(C2CCCC2)cc1 [1:35, 4-cyclopentylphenol] | 0 | 
Oc1cccc(-c2ccccc2)c1 [3:3, 3-phenylphenol] | 7.7 | 
CC(C)(C)c1ccccc1O [1:19, 2-tert-butylphenol] | 7.5 | 
CC(C)(C)c1ccccc1O [1:18, 2-tert-butylphenol] | 0 | 
CCCCc1ccc(O)cc1 [1:13, 4-butylphenol] | 7.0 | 
CC1=CCC(C(C)(C)O)CC1 (stereo not drawn) [1:7, alpha-terpineol] | 7 | 
CC1=CCC(C(C)(C)O)CC1 (stereo not drawn) [B, alpha-terpineol, reference compound] |  | bacterial kill (in words) [1]: not showing bacterial kill
CCC(C)c1ccc(O)cc1 (stereo not shown) [4-sec-butylphenol] |  | antimicrobial action in combination with terpineol in the presence of surfactant (in words) [2]: enhanced antimicrobial action; MBC [1, 3]: 800 µg/mL (≈ 5.33 mM)
CCCCCc1ccc(O)cc1 [1:16, 4-pentylphenol] | 6.6 | 
Oc1ccccc1Cc1ccccc1 [1:42, 2-benzylphenol] | 7.1 | 

Compound | NMBS, mean bacterial survival [1] [log CFU/ml] | other results
CCCc1ccc(O)cc1 [1:9, 4-n-propylphenol] | 7.8 | 
Oc1ccc(C2CCCC2)cc1 [1:36, 4-cyclopentylphenol] | 7.1 | 
CCCCCc1ccc(O)cc1 [1:15, 4-n-pentylphenol] | 0 | 
C/C=C/c1ccccc1O [(E)-2-(prop-1-enyl)phenol] |  | antimicrobial action in combination with terpineol in the presence of surfactant (in words) [2]: enhanced antimicrobial action; MBC [1]: 1500 µg/mL (≈ 11.2 mM)
CCC(C)c1ccc(O)cc1 (stereo not shown) [1:27, 4-sec-butylphenol] | 0 | 
CCC(C)c1ccc(O)cc1 (stereo not shown) [1:28, 4-sec-butylphenol] | 4.1 | 
Cc1ccc(C(C)C)c(O)c1 [A, thymol, reference compound] |  | bacterial kill (in words) [1]: not showing bacterial kill
Cc1ccc(C(C)C)c(O)c1 [Thymol, thymol, reference compound] |  | MBC [1, 3]: 500 µg/mL (≈ 3.33 mM)
CCC(C)c1ccc(O)cc1 (stereo not shown) [1:29, 4-sec-butylphenol] | 7.6 | 
Oc1ccc(Cc2ccccc2)cc1 [1:44, 4-benzylphenol] | 0 | 
CC(C)(C)c1ccc(O)cc1 [4-tert-butylphenol] |  | antimicrobial action in combination with terpineol in the presence of surfactant (in words) [2]: enhanced antimicrobial action
C/C=C/c1ccccc1O [1:39, (E)-2-(prop-1-enyl)phenol] | 6.9 | 
CCCCc1ccc(O)cc1 [1:12, 4-n-butylphenol] | 0 | 
CCCc1ccc(O)cc1 [1:8, 4-n-propylphenol] | 0 | 
CCCCc1ccc(O)cc1 [4-n-butylphenol] |  | antimicrobial action in combination with terpineol in the presence of surfactant (in words) [2]: enhanced antimicrobial action; MBC [1, 3]: 250 µg/mL (≈ 1.66 mM)
CC1=CCC(C(C)(C)O)CC1 (stereo not drawn) [1:5, alpha-terpineol] | 0 | 
CC(C)(C)c1cccc(O)c1 [1:22, 3-tert-butylphenol] | 7.6 | 
C/C=C/c1ccccc1O [1:38, (E)-2-(prop-1-enyl)phenol] | 0 | 
Oc1ccc(Cc2ccccc2)cc1 [1:45, 4-benzylphenol] | 3.8 | 
CC(C)(C)c1cccc(O)c1 [1:21, 3-tert-butylphenol] | 0 | 
